According to ChEMBL document CHEMBL5696442, “Discovery of type II inhibitors of TGFβ-activated kinase 1 (TAK1) and mitogen-activated protein kinase kinase kinase kinase 2 (MAP4K2)” (J Med Chem, 2015):
The source made the active and inactive calls. The calls are words filed in the database; no cut-off is given here.

How the values were obtained:
[1] = molecular target: T1, Serine/threonine-protein kinase Sgk3 (Homo sapiens) (UniProt Q96BR1); test: Inhibition of SGK3 Lys1 labeling site in human A-375 cells at 5 uM by KiNativ Profiling analysis relative to control; format: cell-based
T1 sequence (whole entry): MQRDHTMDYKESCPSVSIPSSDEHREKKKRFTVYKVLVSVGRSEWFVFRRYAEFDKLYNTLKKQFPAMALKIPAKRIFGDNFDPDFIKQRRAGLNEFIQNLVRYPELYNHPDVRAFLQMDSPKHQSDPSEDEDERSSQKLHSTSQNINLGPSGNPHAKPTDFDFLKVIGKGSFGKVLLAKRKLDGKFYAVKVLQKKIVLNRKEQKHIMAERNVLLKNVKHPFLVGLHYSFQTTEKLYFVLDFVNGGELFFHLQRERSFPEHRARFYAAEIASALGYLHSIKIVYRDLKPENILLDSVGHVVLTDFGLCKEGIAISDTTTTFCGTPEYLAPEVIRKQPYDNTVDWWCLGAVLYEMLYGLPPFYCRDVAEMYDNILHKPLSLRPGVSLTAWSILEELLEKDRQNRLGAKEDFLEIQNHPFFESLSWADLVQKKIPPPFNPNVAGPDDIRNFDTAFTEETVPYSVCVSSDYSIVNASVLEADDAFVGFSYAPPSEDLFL

[2] = molecular target: Mitogen-activated protein kinase kinase kinase 11 (Homo sapiens) (UniProt Q16584); test: Inhibition of MLK3 Lys2 labeling site in human A-375 cells at 0.05 uM by KiNativ Profiling analysis relative to control; format: cell-based
[3] = molecular target: Serine/threonine-protein kinase PAK 4 (Homo sapiens) (UniProt O96013); test: Inhibition of PAK4 (unknown origin) at 1 uM by Ambit Kinomescan binding assay relative to control; values are per cent of control
[4] = molecular target: Fibroblast growth factor receptor 4 (Homo sapiens) (UniProt P22455); test: Inhibition of FGFR4 (unknown origin) at 1 uM by Ambit Kinomescan binding assay relative to control; values are per cent of control
Fibroblast growth factor receptor 4 (Homo sapiens), sequence (P22455 22-802 limits assumed): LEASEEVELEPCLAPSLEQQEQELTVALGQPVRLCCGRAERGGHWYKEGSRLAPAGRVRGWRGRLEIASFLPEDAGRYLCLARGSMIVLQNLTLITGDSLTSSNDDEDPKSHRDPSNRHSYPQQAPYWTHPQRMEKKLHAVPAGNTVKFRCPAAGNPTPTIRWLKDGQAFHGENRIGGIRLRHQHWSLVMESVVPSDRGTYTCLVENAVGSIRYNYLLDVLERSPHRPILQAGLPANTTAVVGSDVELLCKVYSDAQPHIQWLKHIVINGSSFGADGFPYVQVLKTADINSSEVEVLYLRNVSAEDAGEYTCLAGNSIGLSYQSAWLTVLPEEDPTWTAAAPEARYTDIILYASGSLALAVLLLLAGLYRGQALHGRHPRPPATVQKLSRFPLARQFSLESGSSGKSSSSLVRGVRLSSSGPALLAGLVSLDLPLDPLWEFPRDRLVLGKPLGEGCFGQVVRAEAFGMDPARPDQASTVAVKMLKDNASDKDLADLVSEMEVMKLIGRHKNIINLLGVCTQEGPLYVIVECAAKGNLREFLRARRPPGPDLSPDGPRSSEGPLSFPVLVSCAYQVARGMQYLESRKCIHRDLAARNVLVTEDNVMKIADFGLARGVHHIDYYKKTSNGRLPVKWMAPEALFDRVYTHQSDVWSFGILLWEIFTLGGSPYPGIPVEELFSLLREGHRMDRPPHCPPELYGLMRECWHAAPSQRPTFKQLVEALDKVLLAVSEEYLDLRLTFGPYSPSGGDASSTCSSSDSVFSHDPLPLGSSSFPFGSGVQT

[5] = molecular target: Mitogen-activated protein kinase kinase kinase kinase 3 (Homo sapiens) (UniProt Q8IVH8); test: Inhibition of MAP4K3 (unknown origin) at 10 uM by Ambit Kinomescan binding assay relative to control
[6] = molecular target: Serine/threonine-protein kinase 33 (Homo sapiens) (UniProt Q9BYT3); test: Inhibition of STK33 (unknown origin) at 10 uM by Ambit Kinomescan binding assay
Serine/threonine-protein kinase 33 (Homo sapiens), sequence (Q9BYT3 whole entry, looked up): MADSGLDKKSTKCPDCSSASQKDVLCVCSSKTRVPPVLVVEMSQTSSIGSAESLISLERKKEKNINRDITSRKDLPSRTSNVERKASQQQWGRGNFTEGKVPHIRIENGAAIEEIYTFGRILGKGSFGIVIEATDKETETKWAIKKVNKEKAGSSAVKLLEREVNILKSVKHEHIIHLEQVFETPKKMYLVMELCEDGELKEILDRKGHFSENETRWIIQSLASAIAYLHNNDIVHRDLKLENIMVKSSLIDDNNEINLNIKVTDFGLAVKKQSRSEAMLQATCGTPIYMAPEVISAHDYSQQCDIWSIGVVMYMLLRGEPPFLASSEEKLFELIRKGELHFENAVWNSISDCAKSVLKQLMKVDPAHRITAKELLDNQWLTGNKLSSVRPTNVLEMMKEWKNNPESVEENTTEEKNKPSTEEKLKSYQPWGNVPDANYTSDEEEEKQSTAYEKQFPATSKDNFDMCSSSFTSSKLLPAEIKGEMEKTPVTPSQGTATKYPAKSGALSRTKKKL

[7] = molecular target: Focal adhesion kinase 1 (Homo sapiens) (UniProt Q05397); test: Inhibition of FAK Lys1 labeling site in human A-375 cells at 5 uM by KiNativ Profiling analysis relative to control; format: cell-based
[8] = molecular target: Tyrosine-protein kinase CSK (Homo sapiens, UniProt P41240); test: Inhibition of CSK ACT labeling site harbouring VSDFGLTKEASSTQDTGK in human A-375 cells at 0.05 uM by KiNativ Profiling analysis relative to control; format: cell-based
[9] = molecular target: Calcium/calmodulin-dependent protein kinase type II subunit delta (Homo sapiens) (UniProt Q13557); test: Inhibition of CamK2d K1 labeling site harbouring IPTGQEYAAKIINTK in human Huh-7 cells at 10 uM by KiNativ Profiling analysis relative to control; format: cell-based
[10] = molecular target: T2, Eukaryotic elongation factor 2 kinase (Homo sapiens) (UniProt O00418); test: Inhibition of eEF2K ATP labeling site in human Huh-7 cell lysate at 1 uM by KiNativ Profiling analysis relative to control; format: subcellular
T2 sequence (whole entry): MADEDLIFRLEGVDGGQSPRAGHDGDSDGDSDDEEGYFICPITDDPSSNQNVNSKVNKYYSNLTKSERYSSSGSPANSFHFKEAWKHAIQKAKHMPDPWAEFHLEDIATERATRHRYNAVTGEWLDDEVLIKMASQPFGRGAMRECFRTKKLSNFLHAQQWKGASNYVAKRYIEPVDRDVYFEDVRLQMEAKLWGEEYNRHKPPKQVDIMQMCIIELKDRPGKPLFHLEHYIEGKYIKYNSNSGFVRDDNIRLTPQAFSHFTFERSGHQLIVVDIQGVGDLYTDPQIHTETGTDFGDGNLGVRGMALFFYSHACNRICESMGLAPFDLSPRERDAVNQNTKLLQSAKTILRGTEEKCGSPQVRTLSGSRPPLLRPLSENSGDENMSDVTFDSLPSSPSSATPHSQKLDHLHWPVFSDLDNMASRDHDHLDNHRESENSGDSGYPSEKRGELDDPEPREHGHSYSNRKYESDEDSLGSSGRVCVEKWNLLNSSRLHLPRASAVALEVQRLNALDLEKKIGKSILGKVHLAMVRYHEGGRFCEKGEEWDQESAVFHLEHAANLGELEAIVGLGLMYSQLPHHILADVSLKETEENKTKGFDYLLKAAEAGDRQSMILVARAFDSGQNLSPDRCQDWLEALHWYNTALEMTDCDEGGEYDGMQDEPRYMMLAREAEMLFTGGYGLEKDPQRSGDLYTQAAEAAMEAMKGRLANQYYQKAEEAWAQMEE

[11] = molecular target: Mitogen-activated protein kinase 3 (Homo sapiens) (UniProt P27361); test: Inhibition of Erk1 Lys2 labeling site harbouring DLKPSNLLINTTCDLK in human Huh-7 cell lysate at 1 uM by KiNativ Profiling analysis relative to control; format: subcellular
[12] = molecular target: Serine/threonine-protein kinase SMG1 (Homo sapiens) (UniProt Q96Q15); test: Inhibition of SMG1 ATP labeling site in human Huh-7 cell lysate at 1 uM by KiNativ Profiling analysis relative to control; format: subcellular
Serine/threonine-protein kinase SMG1 (Homo sapiens), sequence (Q96Q15 whole entry): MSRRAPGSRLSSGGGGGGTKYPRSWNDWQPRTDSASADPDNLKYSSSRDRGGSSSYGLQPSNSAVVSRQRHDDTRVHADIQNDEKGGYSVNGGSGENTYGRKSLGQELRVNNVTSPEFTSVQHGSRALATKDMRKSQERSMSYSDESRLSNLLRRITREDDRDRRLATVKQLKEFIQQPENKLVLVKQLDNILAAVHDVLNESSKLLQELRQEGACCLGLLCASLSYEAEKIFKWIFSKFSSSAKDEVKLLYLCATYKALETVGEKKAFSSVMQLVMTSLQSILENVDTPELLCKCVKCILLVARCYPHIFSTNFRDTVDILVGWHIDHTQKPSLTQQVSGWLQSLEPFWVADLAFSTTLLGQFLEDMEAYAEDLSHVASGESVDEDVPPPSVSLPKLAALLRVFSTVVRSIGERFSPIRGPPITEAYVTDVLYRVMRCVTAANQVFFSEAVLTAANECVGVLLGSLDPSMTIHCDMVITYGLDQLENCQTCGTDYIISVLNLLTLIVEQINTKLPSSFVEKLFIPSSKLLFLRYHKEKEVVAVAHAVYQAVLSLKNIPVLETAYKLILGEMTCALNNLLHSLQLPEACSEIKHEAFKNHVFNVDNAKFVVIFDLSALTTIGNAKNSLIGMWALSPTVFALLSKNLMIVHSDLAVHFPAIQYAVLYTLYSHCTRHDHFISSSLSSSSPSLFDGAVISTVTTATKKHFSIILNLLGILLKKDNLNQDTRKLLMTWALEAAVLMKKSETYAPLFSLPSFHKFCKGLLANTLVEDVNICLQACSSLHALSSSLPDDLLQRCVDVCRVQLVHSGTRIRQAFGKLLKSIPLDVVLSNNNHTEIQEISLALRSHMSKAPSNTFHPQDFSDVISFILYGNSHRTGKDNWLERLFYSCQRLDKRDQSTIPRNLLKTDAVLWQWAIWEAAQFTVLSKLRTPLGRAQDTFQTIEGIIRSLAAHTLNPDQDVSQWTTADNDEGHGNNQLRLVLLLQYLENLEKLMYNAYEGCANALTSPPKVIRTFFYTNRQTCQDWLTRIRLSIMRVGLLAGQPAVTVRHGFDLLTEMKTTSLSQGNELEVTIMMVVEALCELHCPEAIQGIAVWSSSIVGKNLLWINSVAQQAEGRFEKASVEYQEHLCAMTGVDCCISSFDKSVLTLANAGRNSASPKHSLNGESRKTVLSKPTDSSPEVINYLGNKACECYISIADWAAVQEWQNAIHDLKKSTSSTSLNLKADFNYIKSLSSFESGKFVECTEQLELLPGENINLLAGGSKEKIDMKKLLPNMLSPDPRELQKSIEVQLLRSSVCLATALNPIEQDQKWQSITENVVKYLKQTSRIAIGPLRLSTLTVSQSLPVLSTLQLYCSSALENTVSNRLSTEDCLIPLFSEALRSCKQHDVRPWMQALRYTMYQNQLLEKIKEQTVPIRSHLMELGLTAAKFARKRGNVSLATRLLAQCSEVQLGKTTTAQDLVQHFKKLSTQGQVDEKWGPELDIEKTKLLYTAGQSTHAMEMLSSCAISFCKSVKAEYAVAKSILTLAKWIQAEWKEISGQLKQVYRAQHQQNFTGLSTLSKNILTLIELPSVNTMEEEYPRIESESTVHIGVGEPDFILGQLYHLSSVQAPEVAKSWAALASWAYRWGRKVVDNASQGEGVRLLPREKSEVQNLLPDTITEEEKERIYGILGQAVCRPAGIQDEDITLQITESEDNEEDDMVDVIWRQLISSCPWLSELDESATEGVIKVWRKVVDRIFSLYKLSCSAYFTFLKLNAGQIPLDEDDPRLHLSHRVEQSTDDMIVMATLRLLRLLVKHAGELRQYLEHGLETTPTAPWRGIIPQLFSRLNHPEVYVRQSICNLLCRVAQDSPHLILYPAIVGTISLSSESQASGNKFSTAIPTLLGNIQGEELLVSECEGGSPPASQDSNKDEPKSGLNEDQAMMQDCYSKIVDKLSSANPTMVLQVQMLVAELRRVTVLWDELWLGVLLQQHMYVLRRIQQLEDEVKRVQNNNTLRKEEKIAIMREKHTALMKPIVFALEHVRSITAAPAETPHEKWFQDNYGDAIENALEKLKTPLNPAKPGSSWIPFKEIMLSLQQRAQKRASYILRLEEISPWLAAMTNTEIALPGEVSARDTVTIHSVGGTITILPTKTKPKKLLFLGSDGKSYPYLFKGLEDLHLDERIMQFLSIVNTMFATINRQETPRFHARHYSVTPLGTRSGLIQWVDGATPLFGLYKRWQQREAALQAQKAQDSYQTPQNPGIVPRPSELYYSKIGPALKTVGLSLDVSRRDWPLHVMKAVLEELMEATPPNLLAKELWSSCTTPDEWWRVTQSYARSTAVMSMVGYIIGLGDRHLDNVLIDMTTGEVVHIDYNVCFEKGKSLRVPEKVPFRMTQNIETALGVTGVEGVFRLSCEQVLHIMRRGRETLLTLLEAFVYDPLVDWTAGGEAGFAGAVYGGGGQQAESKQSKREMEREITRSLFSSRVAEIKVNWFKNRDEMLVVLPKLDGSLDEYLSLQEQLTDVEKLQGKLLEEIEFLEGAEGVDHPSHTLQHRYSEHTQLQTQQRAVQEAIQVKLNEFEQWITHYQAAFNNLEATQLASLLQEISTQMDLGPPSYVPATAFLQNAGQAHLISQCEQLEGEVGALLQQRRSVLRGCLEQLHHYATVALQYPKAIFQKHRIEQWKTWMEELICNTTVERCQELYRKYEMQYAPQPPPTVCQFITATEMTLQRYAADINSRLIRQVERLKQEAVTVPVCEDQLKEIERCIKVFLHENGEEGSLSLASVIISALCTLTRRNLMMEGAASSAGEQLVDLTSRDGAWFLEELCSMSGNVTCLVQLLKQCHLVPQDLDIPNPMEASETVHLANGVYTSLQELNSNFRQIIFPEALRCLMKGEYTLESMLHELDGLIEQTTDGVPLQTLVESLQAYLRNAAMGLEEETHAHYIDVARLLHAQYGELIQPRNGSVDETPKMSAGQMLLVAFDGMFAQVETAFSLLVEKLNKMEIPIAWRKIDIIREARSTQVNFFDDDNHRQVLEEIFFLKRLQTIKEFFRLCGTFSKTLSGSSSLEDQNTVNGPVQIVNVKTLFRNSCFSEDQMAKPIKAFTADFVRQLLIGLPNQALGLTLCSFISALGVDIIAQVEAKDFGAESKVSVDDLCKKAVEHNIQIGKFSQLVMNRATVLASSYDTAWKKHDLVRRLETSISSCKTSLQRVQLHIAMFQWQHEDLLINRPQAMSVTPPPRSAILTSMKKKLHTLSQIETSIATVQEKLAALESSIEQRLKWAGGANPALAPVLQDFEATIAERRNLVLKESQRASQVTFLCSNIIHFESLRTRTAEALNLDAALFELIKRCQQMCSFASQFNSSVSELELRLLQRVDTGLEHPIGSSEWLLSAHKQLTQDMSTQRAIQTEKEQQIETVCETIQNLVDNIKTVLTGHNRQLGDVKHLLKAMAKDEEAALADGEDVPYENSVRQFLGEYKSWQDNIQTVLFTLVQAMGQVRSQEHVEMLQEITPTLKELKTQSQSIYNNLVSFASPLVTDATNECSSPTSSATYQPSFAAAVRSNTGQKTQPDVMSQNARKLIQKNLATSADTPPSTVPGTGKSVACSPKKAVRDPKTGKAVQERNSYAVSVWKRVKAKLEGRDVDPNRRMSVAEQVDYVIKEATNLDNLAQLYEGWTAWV

[13] = molecular target: TRAF2 and NCK-interacting protein kinase (Homo sapiens) (UniProt Q9UKE5); test: Inhibition of ZC2/TNIK Lys2 labeling site in human Huh-7 cells at 1 uM by KiNativ Profiling analysis relative to control; format: cell-based
[14] = Inhibition of CASK Lys1 labeling site in human Huh-7 cells at 1 uM by KiNativ Profiling analysis relative to control

In the case of `CCN1CCN(Cc2ccc(NC(=O)c3ccc(C)c(/C=C/c4cnc5[nH]ccc5c4OC)c3)cc2C(F)(F)F)CC1`, the inhibition [1] is reported as -9.4%, the inhibition [2] is reported as 11.4% and the residual activity [3] is reported as 100%. The residual activity [4] was 8.1%.

In the case of `CCN1CCN(Cc2ccc(NC(=O)c3ccc(C)c(Oc4ccnc5[nH]ccc45)c3)cc2C(F)(F)F)CC1`, the inhibition [5] is reported as 18%, the inhibition [6] is reported as “inactive” and the inhibition [7] is reported as 13.8%. For the same compound, the inhibition [8] was 23.1% and the inhibition [9] was -7.6%.

With `CNc1cc(Oc2cc(C(=O)Nc3cc(N4CCN(C)CC4)cc(C(F)(F)F)c3)ccc2C)ncn1` the inhibition [10] was -3.5%, the inhibition [11] was -4.1% and the inhibition [12] was 4.2%. It also gave an inhibition [13] of 9.7% and an inhibition [14] of 16%.
